Results reported in patent publication US11667602B2, “Compounds and their use” (AstraZeneca AB, priority 2020, dated 2023).
Converted amounts (≈) assume the structure as drawn.

Columns and labels:
[1] = target: T1, human RXFP1 (Homo sapiens, UniProt Q9HBX9); test: RXFP1 Hu cAMP (Test A); assay type: cell-based; parameters: expressed in transfected cells; host or cells: Jump-In T-REx CHO-K1 cells (ThermoFisher), induced with 10 ng/ml doxycycline for 24 h; conditions: RXFP1 Hu cAMP; for EC50: read-out: Test A EC50
T1 sequence (Q9HBX9 1-757): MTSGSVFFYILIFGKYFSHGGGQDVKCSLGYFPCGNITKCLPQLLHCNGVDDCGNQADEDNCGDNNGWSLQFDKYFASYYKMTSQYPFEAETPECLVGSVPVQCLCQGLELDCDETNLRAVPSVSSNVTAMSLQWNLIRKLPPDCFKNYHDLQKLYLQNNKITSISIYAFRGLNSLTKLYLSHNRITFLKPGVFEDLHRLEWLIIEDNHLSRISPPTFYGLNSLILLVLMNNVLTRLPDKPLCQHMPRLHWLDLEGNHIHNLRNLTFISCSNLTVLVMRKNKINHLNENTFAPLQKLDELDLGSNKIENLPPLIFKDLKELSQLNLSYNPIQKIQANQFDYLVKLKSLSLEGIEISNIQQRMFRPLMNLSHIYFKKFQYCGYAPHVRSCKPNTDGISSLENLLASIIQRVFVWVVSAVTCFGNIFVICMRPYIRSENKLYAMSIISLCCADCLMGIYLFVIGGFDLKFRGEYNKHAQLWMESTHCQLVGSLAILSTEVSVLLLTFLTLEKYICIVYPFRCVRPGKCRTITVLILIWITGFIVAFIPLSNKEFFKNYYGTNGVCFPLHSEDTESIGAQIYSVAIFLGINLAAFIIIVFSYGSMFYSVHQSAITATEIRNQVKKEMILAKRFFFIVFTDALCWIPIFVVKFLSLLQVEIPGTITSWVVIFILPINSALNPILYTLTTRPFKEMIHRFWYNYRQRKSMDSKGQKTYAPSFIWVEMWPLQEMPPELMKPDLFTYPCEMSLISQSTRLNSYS
In short: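 Cells: CHO-K1 stably carrying human RXFP1, expressed after 24 h 10 ng/ml doxycycline; 0.5 mM IBMX final, HTRF detection after 2 h at room temperature.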

[2] = Human Liver Microsomal Stability (Test C); assay type: in vitro ADME; conditions: human, liver microsomes
In short: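 Human liver microsome incubation per the Wernevik et al. integrated DMPK panel protocol. Intrinsic clearance reported as CLint in μl/min/mg protein, averaged arithmetically over repeat runs.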

[3] = Rat Hepatocyte Stability (Test E); assay type: in vitro ADME; conditions: rat, hepatocytes, geometric mean if run multiple times
In short: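 Run per the published AstraZeneca-type rat hepatocyte stability protocol (Wernevik et al. panel). Values are mean intrinsic clearance, Clint in μl/min/10^6 cells; geometric mean used for repeated runs.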

[4] = Human Hepatocyte Stability (Test D); assay type: in vitro ADME; conditions: human, cryopreserved pooled human hepatocytes (LiverPool 10-Donor), geometric mean if run multiple times
Protocol: Human Hepatocyte Stability (Test D)
The metabolic stability of compounds in human hepatocytes was assessed using the following protocol:
1. Prepare 10 mM stock solutions of compound and control compounds in appropriate solvent (DMSO). Place incubation medium (L-15 Medium) in a 37° C. water bath, and allow warming for at least 15 minutes prior to use.
2. Add 80 μL of acetonitrile to each well of the 96-well deep well plate (“Quenching plate”).
3. In a new 96-well plate, dilute the 10 mM test compounds and the control compounds to 100 μM by combining 198 μL of acetonitrile and 2 μL of 10 mM stock solution.
4. Remove a vial of cryopreserved (less than −150° C.) human hepatocytes (LiverPool™ 10-Donor Human hepatocytes obtained from Bioreclamation IVT (Product No. S01205)) from storage, ensuring that vials remain at cryogenic temperatures until thawing process ensues. As quickly as possible, thaw the cells by placing the vial in a 37° C. water bath and gently shaking the vials. Vials should remain in water bath until all ice crystals have dissolved and are no longer visible. After thawing is complete, spray vial with 70% ethanol, transfer the vial to a bio-safety cabinet.
5. Open the vial and pour the contents into the 50 mL conical tube containing thawing medium. Place the 50 mL conical tube into a centrifuge and spin at 100 g for 10 minutes (room temperature).
6. Using Cellometer® Vision, count cells and determine the viable cell density. Cells with poor viability (<80% viability) are not acceptable for use.
7. Transfer 247.5 μL of hepatocytes into each well of a 96-well cell incubation plate. Place the plate on Eppendorf Thermomixer Comfort plate shaker to allow the hepatocytes to warm for 10 minutes.
8. Add 2.5 μL of 100 μM test compound or control compounds into an incubation well containing cells to initiate the reaction.
9. Incubate the plate at 37° C. and 900 rpm on an Eppendorf Thermomixer Comfort plate shaker.
10. Centrifuge the quenching plates for 20 minutes at 4,000 rpm. Transfer 30 μL of supernatant of each compound into a 96-well analysis plate. 4 compounds are pooled together into one cassette. Then dilute the pooled sample by adding of 180 μl of pure water. All incubations are performed in singlicate.
All calculations were carried out using Microsoft Excel. Peak areas were determined from extracted ion chromatograms. In vitro intrinsic clearance (in vitro Clint, in μL/min/10^6 cells) of parent compound was determined by regression analysis of the Ln percent parent disappearance vs. time curve. The in vitro intrinsic clearance (in vitro Clint, in μL/min/10^6 cells) reported in Table 36, and was determined from the slope value using the following equation: in vitro Clint=kV/N
V=incubation volume (0.25 mL);
N=number of hepatocytes per well (0.25×10^6 cells)
Where the assay was run multiple times for the same compound, the geometric mean is reported.

[5] = Solubility (Test F); assay type: physicochemical; conditions: arithmetic mean if run multiple times
Protocol: The assay was conducted according to the Solubility Assay described in pages 164-167 of Wernevik, J. et al., “A Fully Integrated Assay Panel for Early Drug Metabolism and Pharmacokinetics Profiling”, Assay and Drug Development Technologies, 2020, 18(4), 157-179. Data are reported in Table 36 as solubility ([…]. Where the assay was run multiple times for the same compound, the arithmetic mean is reported.

[6] = Human Plasma Protein Binding (Test B); assay type: in vitro ADME; conditions: fraction unbound (fu)
In short: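 Human plasma protein binding run per the published Wernevik et al. (2020) integrated DMPK panel protocol. Values are fraction unbound (fu, % free); repeat runs averaged arithmetically.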

| SMILES | Test A Sinf [1] | EC50 [1] | microsomal CLint [2] | hepatocyte CLint [3] | hepatocyte CLint at 1 µM [4] | solubility [5] | Test B Human Plasma Protein Binding (% free) [6] |
| --- | --- | --- | --- | --- | --- | --- | --- |
| COc1cc(F)c(-c2ccc(CCC(=O)O)cn2)cc1C(=O)N[C@@H]1[C@H]2CC[C@H](C2)[C@@H]1C(=O)Nc1cccc(S(=O)(=O)C(F)(F)F)c1 [Example 242] | 109% | 200 nM | 110 µL/min/mg | 30 µL/min/1e6 cells | 26 µL/min/1e6 cells | 900 µM (≈ 597 µg/mL) |  |
| COc1cc(F)c(O[C@H]2CC[C@@H](C(=O)O)CC2)cc1C(=O)N[C@@H]1[C@H]2CC[C@H](C2)[C@@H]1C(=O)NCC1(C)CC1 [Example 198] | 99% | 1200 nM | 12 µL/min/mg | 77 µL/min/1e6 cells | 6.6 µL/min/1e6 cells | 920 µM (≈ 475 µg/mL) |  |
| COc1cc(F)c(O[C@H]2CC[C@@H](C(=O)O)CC2)cc1C(=O)N[C@@H]1[C@H]2CC[C@H](C2)[C@@H]1C(=O)N[C@@H](C)C(C)(C)C [Example 199] | 100% | 21000 nM | 26 µL/min/mg | 20 µL/min/1e6 cells | 2.6 µL/min/1e6 cells | 1000 µM (≈ 533 µg/mL) |  |
| CCC(C)CNC(=O)C1C2CCC(C2)C1NC(=O)c1cc(OC2CCC(C(=O)O)CC2)c(F)cc1OC (single isomer, unassigned) [Example 202, (1S,4s)-4-(2-Fluoro-4-methoxy-5-(((1S,2R,3S,4R)-3-(((R*)-2-methylbutyl)carbamoyl)bicyclo[2.2.1]heptan-2-yl)carbamoyl)phenoxy)cyclohexane-1-carboxylic acid] | 102% |  | 14 µL/min/mg | 57 µL/min/1e6 cells | 5.6 µL/min/1e6 cells | 890 µM (≈ 462 µg/mL) |  |
| COc1cc(F)c(O[C@H]2CC[C@@H](C(=O)O)CC2)cc1C(=O)N[C@@H]1[C@H](C(=O)Nc2ccc(F)c(C(F)(F)F)c2)[C@@H]2CC[C@H]1O2 [Example 50, (1S,4s)-4-(2-Fluoro-5-(((1R,2R,3S,4S)-3-((4-fluoro-3-(trifluoromethyl)phenyl)carbamoyl)-7-oxabicyclo[2.2.1]heptan-2-yl)carbamoyl)-4-methoxyphenoxy)cyclohexane-1-carboxylic acid] |  | > 50000 nM | < 3 µL/min/mg | < 1 µL/min/1e6 cells |  | 60 µM (≈ 36.8 µg/mL) | 1.9 % free |
| COc1cc(F)c(O[C@H]2CC[C@H](NS(C)(=O)=O)CC2)cc1C(=O)N[C@@H]1[C@H]2CC[C@H](C2)[C@@H]1C(=O)Nc1cccc(S(=O)(=O)C(F)(F)F)c1 [Example 460, (1R,2S,3R,4S)-3-(4-fluoro-2-methoxy-5-(((1r,4R)-4-(methylsulfonamido)cyclohexyl)oxy)benzamido)-N-(3-((trifluoromethyl)sulfonyl)phenyl)bicyclo[2.2.1]heptane-2-carboxamide] | 103% | 370 nM | 300 µL/min/mg | 47 µL/min/1e6 cells |  | 2 µM (≈ 1.41 µg/mL) | 0.32 % free |
| COc1cc(C#N)c(O[C@H]2CC[C@@](C)(C(=O)O)CC2)cc1C(=O)N[C@@H]1[C@H]2CC[C@H](C2)[C@@H]1C(=O)NC1(C2CC2)CC1 [Example 112] | 95% | 470 nM | 6.8 µL/min/mg | 17 µL/min/1e6 cells |  | 830 µM (≈ 456 µg/mL) | 16 % free |
| COc1cc(F)c(-c2cccc(CCC(=O)O)c2)cc1C(=O)N[C@H]1[C@@H](C(=O)Nc2cccc(S(=O)(=O)C(F)(F)F)c2)[C@@H]2C=C[C@H]1C2 (racemic) [Example 282] | 105% | 490 nM | 6.2 µL/min/mg | 12 µL/min/1e6 cells |  | 48 µM (≈ 31.7 µg/mL) | <0.25 % free |
| COc1cc(F)c(O[C@H]2CC[C@@](C)(C(=O)O)CC2)cc1C(=O)N[C@@H]1CC[C@@H]1C(=O)Nc1ccc(F)c(C(F)(F)F)c1 [Example 51, (1S,4s)-4-(2-Fluoro-5-(((1R,2S)-2-((4-fluoro-3-(trifluoromethyl)phenyl)carbamoyl)cyclobutyl)carbamoyl)-4-methoxyphenoxy)-1-methylcyclohexane-1-carboxylic acid] | 112% | 58 nM | 8.5 µL/min/mg | 55 µL/min/1e6 cells |  | 170 µM (≈ 99.4 µg/mL) | 0.50 % free |
| COCC1(CNC(=O)[C@H]2[C@@H]3CC[C@@H](C3)[C@H]2NC(=O)c2cc(O[C@H]3CC[C@@](C)(C(=O)O)CC3)c(C#N)cc2OC)CC1 [Example 79] |  | > 5000 nM | 7.5 µL/min/mg | 31 µL/min/1e6 cells |  | 980 µM (≈ 556 µg/mL) | 28 % free |
| COc1cc(F)c(O[C@H]2CC[C@@](C)(C(=O)O)CC2)cc1C(=O)Nc1cc(C)c(C)cc1C(=O)NCC1(C)CCC1 [Example 212, (1s,4s)-4-(5-((4,5-Dimethyl-2-(((1-methylcyclobutyl)methyl)carbamoyl)phenyl)carbamoyl)-2-fluoro-4-methoxyphenoxy)-1-methylcyclohexane-1-carboxylic acid] | 134% | 310 nM | 6.5 µL/min/mg | 17 µL/min/1e6 cells |  | 4 µM (≈ 2.22 µg/mL) | <2.7 % free |
